Measured values as given in US20090005326A1, “SINGLE DOSE ROXITHROMYCIN” (priority 2007, published 2009).
Where two headings read alike, the source gives them in different places.

How the values were obtained:
[1] = in humans; cited from earlier work
[2] = Elimination T1/2 of roxithromycin in a cat; format: in vivo; details: administered to a cat; route and dose not stated
Experimental: The phrase “elimination half life” or “T1/2,” as used herein, has the conventional meaning used in pharmacokinetics, i.e., the time taken for the maximum plasma concentration (Cmax) of a drug to reduce by 50%.
Therefore, the rate of clearance of roxithromycin from a cat, i.e., as measured by the T1/2, is much slower than when roxithromycin is administered to, for example, a human. The unexpectedly slow rate of clearance (long T1/2) allows bacterial infections in cats to be advantageously treated with a single administration of roxithromycin administered either orally or by injection. Treating a bacterial infection using a single dose of roxithromycin is simpler, more cost effective, and results in better patient compliance. Furthermore, single dose administration of roxithromycin is believed to reduce the risk of microbial strains emerging that are resistant to roxithromycin. Single dose administration of roxithromycin by injection is advantageous because administration by injection bypasses liver metabolism and the single administration precludes multiple visits to the veterinarian. Single dose administration orally, however, is less painful and can permit administration without requiring a visit to the veterinarian.

[3] = literature; cited from earlier work
[4] = Serum concentration after single subcutaneous injection to cats; format: in vivo; details: cat, single subcutaneous injection 10 mg/kg, 200 mg/mL in 10% propylene glycol in glycerol formal
Experimental: Five cats (mixed breed of various sizes, males and female, approximately 4 kg) were administered 10 mg/kg of a roxithromycin composition by subcutaneous injection between the shoulder blades. The roxithromycin composition was prepared by weighing 5.128 g of roxithromycin (purity 97.5%) into a 25 mL volumetric flask, adding 2.5 mL of propylene glycol, and filling to volume with stabilized glycerol formal.
Cats were kept in a stainless steel, suspended, wire bottom cage, at least 3′×3′, provided with a litter box in an environmentally controlled room (22±3° C., a relative humidity of 30-80%, a 12 hour light/dark schedule, and room ventilation of approximately 10-12 air changes per hour.) Tap water was available ad libitum and the cats were fed PMI Feline Lab Diet #5003 or other commercial product.
Blood samples were collected on Day-1 and approximately 1 mL of whole blood was collected at 1, 8, 24, 36, 48, 60, and 72 hr following dosing and twice-daily thereafter through study termination on day 10. […] The dose site was monitored daily during the study.
The serum was analyzed by high pressure liquid chromatograph (“HPLC”) using the following procedure: […]
The serum concentration of roxithromycin was then determined by comparing the area under the curve for the HPLC peak corresponding to roxithromycin to a standard curve of peak areas v. known concentrations of roxithromycin in serum. […]

Bacillus subtilis = assay: MIC, single disc method; format: cell-based
Experimental: (§1) Typically, to be effective, the minimum inhibitory concentration of the roxithromycin against a specific bacteria should be less than 10 μg/mL, preferably less than 5 μg/mL, more preferably less than 2 μg/mL, even more preferably less than 1 μg/mL, and most preferably less than 0.5 μg/mL. The activity of roxithromycin against a bacteria can be determined using standard dilution tests. For example, the minimum inhibitory concentrations can be determined using the disk diffusion susceptibility testing method described in Clinical Microbiology Procedures Handbook, volume 1, edited by Henry D. Isenberg, American Society for Microbiology, 1992, section 5.1 or the well known method of Bauer et al. “Antibiotic Susceptibility Testing by a Standardized Single Disc Method,” Amer. J. Clin. Pathol., 45, p. 493-496.
(§2) FIG. 1 provides a graphical representation of the average plasma serum concentration of roxithromycin as a function of time for the 5 cats that were administered a single dose of roxithromycin by subcutaneous injection at a dose of 10 mg/kg as a formulation containing 200 mg/mL of roxithromycin in 10% propylene glycol in glycerol formal. […] J. Clin. Pathol., 45, p. 493-496.

Clostridium perfringes = assay: MIC, single disc method; format: cell-based
Experimental: as §1, §2

Pasteurella multocida = assay: MIC, single disc method; format: cell-based
Experimental: as §1, §2

Escherichia coli = assay: MIC, single disc method; format: cell-based
Experimental: as §1, §2

Enterococcus faecalis = assay: MIC, single disc method; format: cell-based
Experimental: as §1, §2

Staphylococcus aureus = assay: MIC, single disc method; format: cell-based
Experimental: as §1, §2

Streptococcus pneumoniae = assay: MIC, single disc method; format: cell-based
Experimental: as §1, §2

Streptococcus pyogenes = assay: MIC, single disc method; format: cell-based
Experimental: as §1, §2

[5] = cat, single oral dose 20 mg/kg, capsule of powdered roxithromycin

For roxithromycin, the half-life [1] is listed as 10 to 12 h, the “elimination T1/2” value [2] is listed as “about 73.5 hours” and the “stability in acidic environments” value [3] is listed as “acid labile”. The “time for which serum concentration exceeds the MIC for several bacterial organisms” value [4] was “more than 190 hours”, the “Minimum Inhibitory Concentration (MIC)” value (Bacillus subtilis) was 0.25 µg/mL and the “Minimum Inhibitory Concentration (MIC)” value (Clostridium perfringes) was 2 µg/mL. The “Minimum Inhibitory Concentration (MIC)” value (Pasteurella multocida) was 1 µg/mL, the “Minimum Inhibitory Concentration (MIC)” value (Escherichia coli) was 32 µg/mL and the “Minimum Inhibitory Concentration (MIC)” value (Enterococcus faecalis) was 8 µg/mL. The “Minimum Inhibitory Concentration (MIC)” value (Staphylococcus aureus) was 0.25 µg/mL, the “Minimum Inhibitory Concentration (MIC)” value (Streptococcus pneumoniae) was 0.25 µg/mL and the “Minimum Inhibitory Concentration (MIC)” value (Streptococcus pyogenes) was 0.25 µg/mL. For the same substance, the “time for which serum concentration exceeds the MIC for several bacterial organisms” value [5] was “at least 150 hours”.
